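Step 1: Grow cells in 96-well plates. Step 2: Expose to compound for 48 hours at 5 concentrations. Step 3: Interpolate endpoints linearly; if unreached, use highest concentration. GI50 marks 50% less growth. TGI: total growth inhibition.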
Tests used:
Experiment in all cases: inhibition of tumour cell growth, NCI panel, 48 h
[1] = test system: HT29 colon
[2] = test system: NCI-H23 lung
[3] = test system: SNB-75 CNS
[4] = test system: NCI-H460 lung
[5] = test system: HOP-92 NSCLC
[6] = test system: MOLT-4 leukemia
[7] = test system: UO-31 renal
[8] = test system: IGROV1 ovarian
[9] = test system: KM12 colon
[10] = test system: SK-OV-3 ovarian
[11] = test system: SK-MEL-5 melanoma
[12] = test system: A498 renal
[13] = test system: M14 melanoma
[14] = test system: SW-620 colon
[15] = test system: U251 CNS
[16] = test system: SN12C renal
[17] = test system: HOP-62 NSCLC
[18] = test system: HCC-2998 colon
[19] = test system: RXF 393 renal
[20] = test system: HL-60(TB) leukemia
[21] = test system: OVCAR-4 ovarian
[22] = test system: LOX IMVI melanoma
[23] = test system: SF-295 CNS
[24] = test system: SF-268 CNS
[25] = test system: OVCAR-3 ovarian
[26] = test system: NCI/ADR-RES ovarian
[27] = test system: SR leukemia
[28] = test system: MCF7 breast
[29] = test system: EKVX NSCLC
[30] = test system: BT-549 breast
[31] = test system: DU-145 prostate
[32] = test system: SNB-19 CNS
[33] = test system: OVCAR-8 ovarian
[34] = test system: TK-10 renal
[35] = test system: 786-0 renal
[36] = test system: SK-MEL-2 melanoma
[37] = test system: MDA-MB-231 breast
[38] = test system: SF-539 CNS
[39] = test system: HS 578T breast
[40] = test system: HCT-116 colon
[41] = test system: A549 NSCLC
[42] = test system: ACHN renal
[43] = test system: K-562 leukemia
[44] = test system: NCI-H522 lung
[45] = test system: CAKI-1 renal
[46] = test system: COLO 205 colon
[47] = test system: RPMI-8226 leukemia
[48] = test system: UACC-62 melanoma
[49] = test system: OVCAR-5 ovarian
[50] = test system: MALME-3M melanoma
[51] = test system: MDA-MB-435
[52] = test system: T-47D breast
[53] = test system: PC-3 prostate
[54] = test system: NCI-H226 lung
[55] = test system: UACC-257 melanoma
[56] = test system: HCT-15 colon
[57] = test system: CCRF-CEM leukemia
[58] = test system: SK-MEL-28 melanoma

Clc1ccc(CNc2ccc3nc(CCC4CCCCC4)[nH]c3c2)cc1
GI50 [1]: 1.9 µM
TGI [1]: 4.66 µM
GI50 [2]: 2.07 µM
TGI [2]: 4.94 µM
GI50 [3]: 1.91 µM
TGI [3]: 5.81 µM
GI50 [4]: 2.15 µM
TGI [4]: 4.82 µM
GI50 [5]: 1.47 µM
TGI [5]: 3.8 µM
GI50 [6]: 2.52 µM
TGI [6]: 8.23 µM
GI50 [7]: 1.49 µM
TGI [7]: 3.29 µM
GI50 [8]: 3 µM
TGI [8]: 36.9 µM
GI50 [9]: 2.49 µM
TGI [9]: 7 µM
GI50 [10]: 2.32 µM
TGI [10]: 5.95 µM
GI50 [11]: 1.69 µM
TGI [11]: 3.09 µM
GI50 [12]: 1.36 µM
TGI [12]: 3.4 µM
GI50 [13]: 1.93 µM
TGI [13]: 3.95 µM
GI50 [14]: 1.78 µM
TGI [14]: 3.7 µM
GI50 [15]: 1.73 µM
TGI [15]: 3.47 µM
GI50 [16]: 2.76 µM
TGI [16]: 11.5 µM
GI50 [17]: 2.01 µM
TGI [17]: 4.16 µM
GI50 [18]: 1.81 µM
TGI [18]: 3.41 µM
GI50 [19]: 1.97 µM
TGI [19]: 4.95 µM
GI50 [20]: 2.03 µM
TGI [20]: 4.7 µM
GI50 [21]: 3.5 µM
TGI [21]: 90.7 µM
GI50 [22]: 1.7 µM
TGI [22]: 3.1 µM
GI50 [23]: 1.96 µM
TGI [23]: 4.07 µM
GI50 [24]: 3.13 µM
TGI [24]: 29.9 µM
GI50 [25]: 3.02 µM
TGI [25]: 12.2 µM
GI50 [26]: 2.5 µM
TGI [26]: 7.97 µM
GI50 [27]: 3.15 µM
TGI [27]: 9.92 µM
GI50 [28]: 1.8 µM
TGI [28]: 4.63 µM
GI50 [29]: 2.2 µM
TGI [29]: 7.06 µM
GI50 [30]: 2.14 µM
TGI [30]: 7.24 µM
GI50 [31]: 3.7 µM
TGI [31]: 23.2 µM
GI50 [32]: 3.12 µM
TGI [32]: 14.8 µM
GI50 [33]: 3.18 µM
TGI [33]: 19.9 µM
GI50 [34]: 2.61 µM
TGI [34]: 7.87 µM
GI50 [35]: 2.03 µM
TGI [35]: 4.4 µM
GI50 [36]: 2.24 µM
TGI [36]: 5.12 µM
GI50 [37]: 1.64 µM
TGI [37]: 3.18 µM
GI50 [38]: 2.14 µM
TGI [38]: 4.83 µM
GI50 [39]: 2.12 µM
TGI [39]: 6.37 µM
GI50 [40]: 1.93 µM
TGI [40]: 4.96 µM
GI50 [41]: 3.14 µM
TGI [41]: > 100 µM
GI50 [42]: 3.03 µM
TGI [42]: 11.2 µM
GI50 [43]: 2.09 µM
TGI [43]: 5.02 µM
GI50 [44]: 1.71 µM
TGI [44]: 3.95 µM
GI50 [45]: 2.46 µM
TGI [45]: 6.53 µM
GI50 [46]: 1.93 µM
TGI [46]: 3.73 µM
GI50 [47]: 2.09 µM
TGI [47]: 5.02 µM
GI50 [48]: 1.76 µM
TGI [48]: 3.41 µM
GI50 [49]: 2.39 µM
TGI [49]: 6.68 µM
GI50 [50]: 1.77 µM
TGI [50]: 4.08 µM
GI50 [51]: 1.88 µM
TGI [51]: 4.1 µM
GI50 [52]: 2.24 µM
TGI [52]: 6.55 µM
GI50 [53]: 2.66 µM
TGI [53]: 10.9 µM
GI50 [54]: 1.76 µM
TGI [54]: 4.16 µM
GI50 [55]: 2.3 µM
TGI [55]: 6.3 µM
GI50 [56]: 1.83 µM
TGI [56]: 5.64 µM
GI50 [57]: 3.27 µM
TGI [57]: > 100 µM

Cn1cc(-c2nonc2-c2cn(C)c3ccc(F)cc23)c2ccccc21
GI50 [1]: 0.346 µM
TGI [1]: > 100 µM
GI50 [2]: 0.836 µM
TGI [2]: > 100 µM
GI50 [3]: 0.206 µM
TGI [3]: 0.702 µM
GI50 [4]: 0.39 µM
TGI [4]: > 100 µM
GI50 [5]: 0.439 µM
TGI [5]: > 100 µM
GI50 [6]: 0.685 µM
TGI [6]: > 100 µM
GI50 [7]: 0.438 µM
TGI [7]: > 100 µM
GI50 [8]: 0.522 µM
TGI [8]: > 100 µM
GI50 [9]: 0.433 µM
TGI [9]: > 100 µM
GI50 [10]: 0.594 µM
TGI [10]: > 100 µM
GI50 [11]: 0.502 µM
TGI [11]: > 100 µM
GI50 [12]: 0.273 µM
TGI [12]: 0.976 µM
GI50 [13]: 0.342 µM
TGI [13]: > 100 µM
GI50 [14]: 0.361 µM
TGI [14]: > 100 µM
GI50 [15]: 0.469 µM
TGI [15]: > 100 µM
GI50 [16]: 0.724 µM
TGI [16]: > 100 µM
GI50 [17]: 0.59 µM
TGI [17]: > 100 µM
GI50 [18]: 0.958 µM
TGI [18]: > 100 µM
GI50 [19]: 0.271 µM
TGI [19]: 0.873 µM
GI50 [20]: 0.306 µM
TGI [20]: 2.3 µM
TGI [21]: > 100 µM
GI50 [22]: 0.564 µM
TGI [22]: > 100 µM
GI50 [23]: 0.299 µM
GI50 [24]: 1.21 µM
TGI [24]: > 100 µM
GI50 [25]: 0.34 µM
GI50 [58]: 3.5 µM
TGI [58]: > 100 µM
GI50 [26]: 0.395 µM
TGI [26]: > 58.3 µM
GI50 [27]: 0.269 µM
TGI [27]: > 100 µM
GI50 [28]: 0.366 µM
TGI [28]: > 100 µM
GI50 [29]: 0.721 µM
TGI [29]: > 100 µM
GI50 [30]: 0.923 µM
TGI [30]: > 100 µM
GI50 [31]: 0.53 µM
TGI [31]: > 100 µM
GI50 [32]: 0.555 µM
TGI [32]: > 100 µM
GI50 [33]: 0.63 µM
TGI [33]: > 100 µM
GI50 [34]: > 20.4 µM
TGI [34]: > 100 µM
GI50 [35]: 0.614 µM
TGI [35]: > 100 µM
GI50 [36]: 0.552 µM
TGI [36]: > 100 µM
GI50 [37]: 0.869 µM
TGI [37]: > 100 µM
GI50 [38]: 0.291 µM
TGI [38]: 1.58 µM
GI50 [39]: 0.299 µM
GI50 [40]: 0.432 µM
TGI [40]: > 100 µM
GI50 [41]: 0.703 µM
TGI [41]: > 100 µM
GI50 [42]: 0.595 µM
TGI [42]: > 100 µM
GI50 [43]: 0.311 µM
TGI [43]: > 100 µM
GI50 [44]: 0.357 µM
TGI [44]: > 100 µM
GI50 [45]: 0.416 µM
TGI [45]: > 100 µM
GI50 [46]: 0.856 µM
TGI [46]: > 100 µM
GI50 [47]: 0.463 µM
TGI [47]: > 100 µM
GI50 [48]: 0.469 µM
TGI [48]: > 100 µM
GI50 [49]: 1.05 µM
TGI [49]: > 100 µM
GI50 [50]: 0.54 µM
TGI [50]: > 100 µM
GI50 [51]: 0.199 µM
TGI [51]: 0.623 µM
GI50 [52]: 0.809 µM
TGI [52]: > 100 µM
GI50 [53]: 0.427 µM
TGI [53]: > 100 µM
GI50 [54]: 2.56 µM
TGI [54]: > 100 µM
GI50 [56]: 0.398 µM
TGI [56]: > 100 µM
GI50 [57]: 0.319 µM
TGI [57]: > 100 µM

From PubChem BioAssay (NCI)
